From patent publication US20190282632A1, “METHODS AND PRODUCTS FOR MODULATING MICROBIOTA COMPOSITION FOR IMPROVING THE EFFICACY OF A CANCER TREATMENT WITH AN IMMUNE CHECKPOINT BLOCKER” (INSTITUT GUSTAVE ROUSSY, priority 2014, published 2019)
Entries after “also recorded” stand apart in the source; their conditions may differ. Where two headings read alike, the source gives them in different places.

Experiments:
MCA205 sarcoma = assay: Tumor growth of established MCA205 sarcoma under anti-CTLA4 (9D9) therapy, with antibiotics, gene-deficient hosts, co-administered mAbs or oral bacteria; settings: for Effect of antibiotic regimen on the antitumor effects of 9D9 Ab against MCA205 sarcomas: SPF mice, antibiotics in drinking water
Procedure: Mice were subcutaneously injected into the right flank with 1×10^6 MCA205-0VA or MC38, or with 0.2×10^6 CT26 tumor cell lines. When tumors reached a size of 25 to 40 mm^2 (day 0), mice were injected intraperitoneally (i.p) with 100 μg of anti-CTLA-4 mAb (clone 9D9) or isotype control (clone MPC11). Mice were injected 5 times at 3-day intervals with 9D9, and tumor size was routinely monitored by means of a caliper. In order to evaluate the synergistic effect of vancomycin and anti-CTLA4, a prophylactic setting was established. […] In experiments using anti-IL-12p40 mAb (clone C17.8, 500 μg per mouse) or anti-Ly6G mAb (clone 1A8, 200 μg per mouse), mAbs (or their isotype controls, clone 2A3 in both cases) were injected i.p. every 2 days starting from day 0 until the final anti-CTLA-4 injection. […] All mAbs for in vivo use were obtained from BioXcell (West Lebanon, N.H., USA), using the recommended isotype control mAbs. The inhibitor of iNOS, NG-monomethyl-L-arginine (L-NMMA; Sigma), was administered in PBS daily to mice i.p. at a dose of 2 mg per mouse from the start of anti-CTLA4 treatment.
Mice were treated with antibiotics 2-3 weeks before tumor implantation and continued on antibiotics until the end of the experiment. A mix of ampicillin (1 mg/ml), streptomycin (5 mg/ml), and colistin (1 mg/ml) (Sigma-Aldrich), or vancomycin alone (0.25 mg/ml), or imipenem alone (0.25 mg/ml), or colistin alone (2.103 U/ml) were added in sterile drinking water. Solutions and bottles were changed 2-3 times a week, or daily for experiments with imipenem. Antibiotic activity was confirmed by macroscopic changes observed at the level of caecum (dilatation) and by cultivating the fecal pellets resuspended in BHI+15% glycerol at 0.1 g/ml on blood agar plates for 48 h at 37° C. with 5% CO2 in aerobic or anaerobic conditions.
For inoculation of GF mice or mice treated with broad-spectrum antibiotics, colonization was performed the day following the first anti-CTLA4 injection by oral gavage with 100 μl of suspension containing 1×10^9 bacteria. Efficient colonization was checked by culture of feces 48 h post oral gavage. Bacteroides fragilis, Bacteroides thetaiotaomicron, Bacteroides distasonis, Bacteroides uniformis, Lactobacillus plantarum and Enterococcus hirae were grown on COS agar plates (Biomerieux) for 48 h at 37° C. with 5% CO2 in anaerobic conditions. E. coli and Burkholderia cepacia were grown on COS agar plates for 24 h at 37° C. with 5% CO2 in aerobic conditions. Bacteria were harvested from the agar plates, suspended in sterile PBS, centrifuged and washed once with PBS, then resuspended in sterile PBS at an optical density (600 nm) of 1, which corresponds approximately to 1×10^9 colony-forming units (CFU)/ml. In cases where more than one bacteria was administered, an equal volume of each bacteria suspension was mixed to give a suspension of equal proportion of each type of bacteria, to a total 1×10^9 bacteria/ml. For bacteria reconstitution experiments using mice previously treated with antibiotics, antibiotics treatment was stopped after 2-3 weeks at the first anti-CTLA4 injection, and mice were orally gavaged with 1×10^9 CFU the following day. B. distasonis, B. uniformis, E. hirae, and E. coli isolates used in the experiments were originally isolated from feces or mesenteric lymph nodes of SPF mice treated with anti-CTLA4 and identified as described above. […] LPS-EK and LTA-SA (Invivogen) were administrated by oral gavage, at a dose of 500 μg per mouse.

[1] = tested on: gut microbiome of metastatic melanoma patients; assay: Pyrosequencing of 16S rRNA gene amplicons of patients' feces and clustering into enterotypes A, B, C; assay type: in vivo, human
Procedure: (§1) All clinical studies were conducted after informed consent of the patients, following the guidelines of the Declaration of Helsinki. Peripheral blood mononuclear cells (PBMC) were provided by Gustave Roussy (Villejuif, France) and by the Department of Radiation Oncology (New York University, New York, N.Y., USA). Patients were included in the following protocols: LUDWIG: MAGE3 protein—based vaccines (25), Meladex vaccine Phase I trial (26), Mel-Ipi-Rx, NCT01557114 (European Union Drug Regulating Authorities clinical trial EudraCT 2010-020317-93) and a pilot study approved by the Kremlin Bicetre Hospital Ethics Committee (n° SC12-018; ID RCB: 2012-A01496-37). Ipilimumab/radiotherapy abscopal effect trials in MM and NSCLC at NYU (Study code: NCT01689974, Study code: NCT0222173). MM patients at baseline were investigated prior to vaccine injections in the Ludwig and Meladex protocols. For memory T cell responses, blood samples were drawn from patients before and after 3 or 4 cycles of ipilimumab. Pyrosequencing analyses of 16S rRNA of gene amplicons in patients feces pre- and post-injections of ipilimumab (V0, V1, V2) were performed according to n° SC12-018; ID RCB: 2012-A01496-37 pilot study endpoints by GATC Biotech AG (Konstanz, Germany).
GOLD: Prospective immunomonitoring study of patients with metastatic melanoma receiving four injections of Ipilimumab every three weeks. In addition to peripheral blood sampling for memory T cell responses assessment, feces were collected before each Ipilimumab injection. Feces samples were frozen at −80° C. and sent for 16RNA pyrosequencing analysis at GATC Biotech AG (Konstanz, Germany).

metastatic melanoma = settings: cited from earlier work; for Durable disease control: after more than 7 years of follow-up, MM
CD4+CD45RO+ T cells = assay: Recall of human CD4+ T cell responses directed against commensals (IFNγ, IL-10); assay type: cell-based
Procedure: as §1
Assessing CD4^+ T cell memory responses. Murine systems. Bone marrow-derived dendritic cells (BM-DCs) were generated from femurs and tibiae of C57BL/6 mice, cultured for 7 days in Iscove's medium (Sigma-Aldrich) with J558 supernatant (final GM-CSF concentration of 40 ng/ml), 10% FCS, 100 IU/ml penicillin/streptomycin, 2 mM L-glutamine, 50 μM 2-mercaptoethanol (Sigma-Aldrich) and split every 3-4 days. At day 7, BM-DCs were infected with the isolated bacterial strains at multiplicity of infection (MOI) of 10 or 50, for 1 h at 37° C. in complete Iscove's medium without antibiotics, onto specific low binding 6 wells plates (Sigma). Cells were then washed with PBS and incubated in complete Iscove's medium supplemented with gentamicin (50 μg/ml) to kill extracellular bacteria. For Burkholderia cepacia, the antibiotic meropenem (2 μg/mL, Astra Zeneca) was required. After 24 h, BM-DCs were cultured together with CD4^+ T cells purified from the spleens of mice that had received 7 days treatment of anti-CTLA4 mAb (i.e 3 anti-CTLA4 mAb injections, as detailed above) in complete RPMI medium. CD4^+ T cells were isolated by depletion of non CD4^+ T cells using a cocktail of biotin-conjugated antibodies against CD8a, CD11b, CD11c, CD19, CD45R (B220), CD49b (DX5), CD105, Anti-MHC-class II, Ter-119 and TCRγ/δ as primary labeling reagent. The cells were then magnetically labeled with Anti-Biotin MicroBeads (Miltenyi Biotec, France). […]

[2] = tested on: small intestine and colon; assay: Histology and histopathological scoring of gut tissue; assay type: in vivo, mice; settings: vancomycin-treated tumor bearers
Procedure: The whole small intestine (duodenum, jejunum and ileum) and the colon were removed, cleaned from feces and fixed in 4% PFA for 1 h. Rehydratation of the tissue was performed in 15% sucrose for 1 h and in 30% sucrose overnight. Small intestines or colons were cut longitudinally, with the resulting ribbons rolled, then embedded in optimum cutting temperature (OCT) compound (Sakura), snap frozen, and longitudinal 6 μm sections were prepared. For histological analysis, longitudinal sections were counterstained with hematoxilin and eosin. For histological quantitative analysis, inflammatory foci, appearance of the submucosa, length of villi, and the thickness of lamina propria were scored for each section by a pathologist.

[3] = tested on: bacterial families and orders in feces; assay: 454 pyrosequencing of 16S rRNA gene amplicons of feces from tumor bearers
Procedure: Fecal samples used in this study were collected before or after one injection of anti-CTLA4 (or isotype control) from mice under vancomycin regimen or water, and were kept at −80° C. until further analysis. Library preparation and sequencing were conducted at GATC Biotech AG (Konstanz, Germany).

colistin
Effect of antibiotic regimen on the antitumor effects of 9D9 Ab against MCA205 sarcomas (MCA205 sarcoma): compromised the antitumor effects

Ipilimumab
Proportion of MM patients falling into cluster C during therapy ([1]; from 26 before therapy): 39% | Proportion of MM patients belonging to cluster B during therapy ([1]; from 58 before therapy): 39% | Stools of a B pattern that turned into the C favorable enterotype ([1]; paired analysis of feces in 12 cases, 2 out of 7): 29% | Durable disease control (metastatic melanoma): about 20% | Durable disease control (metastatic melanoma; listed as ipilimumab): approximately 20% | Immune-related adverse events of grade III-IV (metastatic melanoma; human, in vivo, iv): 20% | Life threatening immune-related adverse events (metastatic melanoma; human, in vivo): < 5% | Decreased commensal-specific Th1 immunity of cancer patients (CD4+CD45RO+ T cells; at least in some cases): restored | IL-10 production by T cells responding to Bf, B. thetaiotaomicron and to some extent Burkholderia cepacia (CD4+CD45RO+ T cells; melanoma patients, after at least 2 injections): inhibited | IFNγ secretion by T cells responding to Bf and B. thetaiotaomicron (CD4+CD45RO+ T cells; melanoma patients, after at least 2 injections, not E. coli, E. faecalis or irrelevant bacteria): significantly increased | B. thetaiotaomicron-specific Tr1 immune responses (CD4+CD45RO+ T cells; paired analyses on 5-12 patients): decrease

CNC(=N)NCCC[C@H](N)C(=O)O [L-NMMA, NG-monomethyl-L-arginine]
9D9 mAb-induced tumoricidal activity upon neutralization of nitric oxide (MCA205 sarcoma; 2 mg per mouse daily i.p.): failed to affect; also recorded: did not alter the antitumor effects

CN[C@H](CC(C)C)C(=O)N[C@H]1C(=O)N[C@@H](CC(N)=O)C(=O)N[C@H]2C(=O)N[C@H]3C(=O)N[C@H](C(=O)N[C@H](C(=O)O)c4cc(O)cc(O)c4-c4cc3ccc4O)[C@H](O)c3ccc(c(Cl)c3)Oc3cc2cc(c3O[C@@H]2O[C@H](CO)[C@@H](O)[C@H](O)[C@H]2O[C@H]2C[C@](C)(N)[C@H](O)[C@H](C)O2)Oc2ccc(cc2Cl)[C@H]1O [Vancomycin, vancomycin]
Histopathological score of colonic mucosae under anti-CTLA4 [2]: worsened the histopathological score | Depletion of Bacteroidales and Burkholderiales provoked by CTLA4 blockade ([3]; vancomycin conditioning): prevented the depletion; also recorded: prevented the loss | Representation of Bacteroidales (and Enterobacteriales) at the expense of Clostridiales ([3]; vancomycin in drinking water): overrepresentation | Effect of antibiotic regimen on the antitumor effects of 9D9 Ab against MCA205 sarcomas (MCA205 sarcoma): boosted the antitumor effects; also recorded: augments the tumoricidal effects | Effect of antibiotic regimen on the antitumor effects of 9D9 Ab against MCA205 sarcomas (MCA205 sarcoma; listed as vancomycin): ameliorated the tumor growth reduction

lipoteichoic acid
Restoration of 9D9 mAb-induced antitumor effects lost in ACS-treated mice (MCA205 sarcoma; oral administration, 500 μg per mouse): failed to restore
